Where two headings read alike, the source gives them in different places.
What was measured:
[1] = tested on: Liv7k cell line (oral cancer); experiment: Drug repurposing screen: growth inhibition of oral cancer cell line under normoxia and hypoxia (nuclei count); assay type: cell-based; settings: Homo sapiens; for inhibition at 10 µM: 72 h, read-out: Growth Inhibition (GI)
Method: HPV-negative cell line derived from a T3N2b primary tumor of the tongue. The patient received no chemo/radiotherapy prior to tumor excision. Generously gifted by Professor Richard Shaw (Head and Neck Cancer Consultant, Liverpool, UK). Cells are maintained in keratinocyte SFM (Life Technologies), supplemented with 2 mM L-glutamine, 0.2 ng/ml epidermal growth factor (EGF) and 25 μg/ml bovine pituitary extract (BPE). The cell line was tested from mycoplasma contamination and authenticated by exome sequencing and CNV.
1397 compounds from the NIH Clinical Collection (Evotec, San Francisco, Calif.), LOPAC Pfizer (Sigma Aldrich), the Developmental Therapeutics Program (DTP)-Approved Oncology library and the FDA-Approved Drug Library (Selleck Chemicals) were tested at a single concentration of 10 μM. The libraries were received as 10 mM compounds in dimethyl sulfoxide (DMSO). Plates which conflicted with our plate layout were reformatted. The compounds were first diluted 1:50 in serum free media, and then further diluted 1:20 into to 96 well plates containing 5000 cells in 190 μl of keratinocyte SFM supplemented with 2 mM L-glutamine, 0.2 ng/ml EGF and 25 μg/ml BPE. 0.1% DMSO was used as a negative control, and staurosporine (Sigma Aldrich) at a concentration of 1 μM was used as a positive death control in all plates. Each drug was tested for 72 h under 21% and 0.1% O2. The cells were fixed using 4% formaldehyde after 72 h, and stained with DAPI dilactate (Sigma Aldrich). To assess viability, stained nuclei were counted using Perkin Elmer Operetta High Content Microscope.
An experimental screen was designed for testing whether the clinical SL-network can discriminate between cytotoxic and non-cytotoxic drugs, when considering a wide range of oncology and non-oncology drugs. Transcriptomic profiles of an oral cancer cell line under normoxia and hypoxia were obtained. Based on these profiles the network predicted the cell line response to 139 oncology and 531 non-oncology drugs in each condition. […]

[2] = tested on: pancreatic cancer cells (Capan-1); experiment: Drug combination with olaparib, Combination Index by Chou-Talalay method (CompuSyn); assay type: cell-based, human; settings: CI<0.9 denotes synergism
Method: The experiment was conducted in triplicates.

Row | SMILES | inhibition at 10 µM ([1]; hypoxia (0.1% O2)) [%] | inhibition at 10 µM ([1]; normoxia (21% O2)) [%] | IC50 ([1]; normoxia) [µM] | median Combination Index (CI) [2]
1 | CN(C/C=C/C#CC(C)(C)C)Cc1cccc2ccccc12 [terbinafine] | 45.2 | 81.9 | 5.8 | 
2 | COc1cc([C@@H]2c3cc4c(cc3[C@@H](O[C@@H]3O[C@@H]5CO[C@@H](C)O[C@H]5[C@H](O)[C@H]3O)[C@H]3COC(=O)[C@H]23)OCO4)cc(OC)c1O [Etoposide (VP16), etoposide] |  |  |  | 0.718
3 | O=C(CCCCCCC(=O)Nc1ccccc1)NO [VORINOSTAT, vorinostat] |  |  |  | 0.551
